Columns and labels:
[1] = test system: recruitment of Nurr1 at iNOS-promoter; assay: ChIP assay, Nurr1 recruitment to iNOS-promoter in mouse primary astrocytes; assay type: cell-based; conditions: SB21 pre-incubation, IL1β stimulation
Procedure: FIGS. 15A-I show the CoREST complex requirement for Nurr1-mediated repression in astrocytes. (FIG. 15A) IL1β stimulation enhances physical association of Nurr1 and p65 in mouse primary astrocytes. Lysates of astrocytes stimulated with IL1β (10 ng/ml) for the indicated times were immunoprecipitated with anti-Nurr1 antibody and Western blots were developed with anti-p65 antibody. Equal loading was determined as described in FIG. 12F. (FIG. 15B) Recruitment of Nurr1 and p65 to iNOS-promoter in mouse primary astrocyte shown by ChIP assay. Data represent fold enrichment of iNOS-promoter precipitated with the indicated antibodies compared to control IgG as determined by qPCR. […] Mouse primary astrocytes were treated with SB21 as described in FIG. 12A. Data represent fold enrichment of iNOS-promoter precipitated with antibody against Nurr1 compared to control IgG as determined by qPCR. […] Data represent fold enrichment of iNOS-promoter precipitated with the indicated antibodies compared to control IgG as determined by qPCR. […] Cells were stimulated with 10 ng/ml IL1β for 6 h and mRNA expression of iNOS (FIG. 15F), CSF1 (FIG. 15G) and Ncf1 (FIG. 15H) was determined by qPCR. […]
(§1) ChIP assay. […] Quantitative PCR (qPCR) was performed with SYBR-GREEN PCR master Mix (ABI) or SYBR-GreenER (Invitrogen) and analyzed on a 7200 real time PCR system (ABI).

[2] = test system: interaction of Nurr1 and p65; assay: Co-immunoprecipitation of Nurr1 and p65 in LPS-stimulated BV2 cells; assay type: cell-based, mouse; conditions: SB21 1 h prior to LPS (1 μg/ml), co-IP and Western blot
Procedure: (§2) FIGS. 12A-I show Nurr1 acting as an RXR-independent, GSK3β-dependent transrepressor for NF-κB. (FIG. 12A) Nurr1 is recruited to the TNFα-promoter in response to LPS. This recruitment is blocked by the GSK3β-specific inhibitor SB216763 (SB21). BV2 cells were pre-incubated with DMSO or 30 μM SB21 for 1 h followed by LPS stimulation for the indicated times before ChIP assay. […] (FIG. 12B) Nurr1-mediated repression is independent of DNA binding and RXR dimerization. RAW264.7 cells were transfected with wild type Nurr1, P-box mutant Nurr1C280A/E281A (CEAA) and I-box mutant Nurr1K555A/L556A/L227A (KLL). iNOS-promoter activity in RAW264.7 cells measured by luciferase-reporter assay. *, p<0.01 compared to control (Mock). (FIG. 12C) siRNA against Ubc9 abolishes Nurr1-mediated transrepression of iNOS-promoter activity. *, p<0.01 compared to Nurr1 with control siRNA. (FIG. 12D) K558 and K576 are the predominant SUMOylation sites of Nurr1. […] Equal loading was determined by re-blotting using anti-Nurr1 antibody. […] Nurr1 expression vector was transfected into RAW264.7 cells together with control siRNA or siRNA against GSK3β and iNOS-promoter activity was determined as described before. *, p<0.01 compared to Nurr1 with control siRNA. (FIG. 12I) S468A mutant of p65 abolishes Nurr1-mediated repression of iNOS-promoter activity. iNOS-promoter activity was determined as described before. […]

[3] = test system: recruitment of Nurr1 to the TNFα-promoter; assay: ChIP assay, Nurr1 recruitment to TNFα-promoter in BV2 cells; assay type: cell-based, mouse; conditions: 30 μM SB21 for 1 h followed by LPS
Procedure: as §2, with “(Mock).” for “(Mock). (FIG. 12C) siRNA against Ubc9 abolishes Nurr1-mediated transrepression of iNOS-promoter activity. *, p<0.01 compared to Nurr1 with control siRNA. (FIG. 12D) K558 and K576 are the predominant SUMOylation sites of Nurr1.”
as §1

ALS = ALS patients; cited from earlier work
[4] = target: T1, Nurr1 (NR4A2), endogenous protein in mouse cells (mouse, UniProt Q06219 1-598); assay: co-IP from BV2 lysates, anti-Nurr1 IP, anti-p65 Western blot (FIG. 12F)
T1 construct: Endogenous protein, immunoprecipitated or blotted with anti-Nurr1 (E-20, Santa Cruz)
T1 sequence (Q06219 whole entry): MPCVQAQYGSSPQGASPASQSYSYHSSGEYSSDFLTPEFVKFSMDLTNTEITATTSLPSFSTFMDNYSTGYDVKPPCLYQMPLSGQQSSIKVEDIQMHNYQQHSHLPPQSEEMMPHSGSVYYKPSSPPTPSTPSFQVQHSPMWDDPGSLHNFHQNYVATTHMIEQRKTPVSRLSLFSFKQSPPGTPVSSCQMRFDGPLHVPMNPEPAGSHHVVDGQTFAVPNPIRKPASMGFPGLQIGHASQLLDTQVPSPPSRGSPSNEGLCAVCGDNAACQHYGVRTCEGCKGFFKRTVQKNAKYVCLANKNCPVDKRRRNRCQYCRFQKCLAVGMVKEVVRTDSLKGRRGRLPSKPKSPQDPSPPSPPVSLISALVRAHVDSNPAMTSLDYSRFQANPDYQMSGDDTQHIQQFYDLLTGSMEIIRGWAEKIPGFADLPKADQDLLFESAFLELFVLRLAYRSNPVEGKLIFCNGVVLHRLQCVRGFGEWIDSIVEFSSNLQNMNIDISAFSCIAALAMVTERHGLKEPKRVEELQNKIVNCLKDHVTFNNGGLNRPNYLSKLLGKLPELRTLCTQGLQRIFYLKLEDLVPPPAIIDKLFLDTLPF
Procedure: Lysates of BV2 cells stimulated with LPS (1 μg/ml) for the indicated times were immunoprecipitated with anti-Nurr1 antibody and Western blots were developed with anti-p65 antibody. Equal loading was determined by re-blotting using anti-Nurr1 antibody. (FIG. 12G) SB21 impairs the binding of Nurr1 and p65 in a dose-dependent manner. BV2 cells were incubated with SB21 at the indicated concentrations for 1 h prior to stimulation with LPS (1 μg/ml). IP and Western blotting were performed as described in FIG. 12F. (FIG. 12H) siRNA against GSK3β abolishes Nurr1-mediated repression of iNOS-promoter activity. Nurr1 expression vector was transfected into RAW264.7 cells together with control siRNA or siRNA against GSK3β and iNOS-promoter activity was determined as described before. *, p<0.01 compared to Nurr1 with control siRNA. (FIG. 12I) S468A mutant of p65 abolishes Nurr1-mediated repression of iNOS-promoter activity. iNOS-promoter activity was determined as described before.
Co-immunoprecipitations and Western blotting. Hela cells or NIH3T3 cells were transfected using Lipofectamine 2000 reagent (Invitrogen) following manufacturer's protocol. Transfected cells were stimulated by 10 ng/ml recombinant human or mouse mIL1β (R & D system) for the indicated times prior to harvesting. […]

**Q.** For `Cn1cc(C2=C(c3ccc(Cl)cc3Cl)C(=O)NC2=O)c2ccccc21` [SB216763], which “recruitment of Nurr1 at iNOS-promoter” value [1] is on record?
**A.** Its value is “Altered recruitment of Nurr1 to iNOS-promoter”.

**Q.** And the “recruitment of Nurr1 at iNOS-promoter” value ([1]; listed as SB21)?
**A.** The value was “decreases the recruitment of Nurr1 at iNOS-promoter”.

**Q.** What about the “interaction (binding) of Nurr1 and p65” value [2] of the same molecule?
**A.** Its value is “inhibited the interaction of Nurr1 and p65 in BV2 cells in a dose-dependent manner”.

**Q.** What about the “interaction (binding) of Nurr1 and p65” value ([2]; listed as SB21) of the same molecule?
**A.** Its value is “impairs the binding of Nurr1 and p65 in a dose-dependent manner”.

**Q.** And the “recruitment of Nurr1 to the TNFα-promoter” value [3]?
**A.** Its value is “blocked”.

**Q.** And the “recruitment of Nurr1 to the TNFα-promoter” value ([3]; listed as SB21)?
**A.** The value was “prevented the recruitment of Nurr1 to the TNFα-promoter”.

**Q.** With `Nc1nc2ccc(OC(F)(F)F)cc2s1` [riluzole] as the molecule, how does the “extension of the course of the disease” value (ALS) read?
**A.** Its value is 2 months.

B1: NF-κB-p65, endogenous protein in mouse cells (other, UniProt Q04207 1-549, looked up)
chain: MDDLFPLIFPSEPAQASGPYVEIIEQPKQRGMRFRYKCEGRSAGSIPGERSTDTTKTHPTIKINGYTGPGTVRISLVTKDPPHRPHPHELVGKDCRDGYYEADLCPDRSIHSFQNLGIQCVKKRDLEQAISQRIQTNNNPFHVPIEEQRGDYDLNAVRLCFQVTVRDPAGRPLLLTPVLSHPIFDNRAPNTAELKICRVNRNSGSCLGGDEIFLLCDKVQKEDIEVYFTGPGWEARGSFSQADVHRQVAIVFRTPPYADPSLQAPVRVSMQLRRPSDRELSEPMEFQYLPDTDDRHRIEEKRKRTYETFKSIMKKSPFNGPTEPRPPTRRIAVPTRNSTSVPKPAPQPYTFPASLSTINFDEFSPMLLPSGQISNQALALAPSSAPVLAQTMVPSSAMVPLAQPPAPAPVLTPGPPQSLSAPVPKSTQAGEGTLSEALLHLQFDADEDLGALLGNSTDPGVFTDLASVDNSEFQQLLNQGVSMSHSTAEPMLMEYPEAITRLVTGSQRPPDPAPTPLGTSGLPNGLSGDEDFSSIADMDFSALLSQISS
notes: Endogenous protein, detected with anti-p65 (C-20, Santa Cruz)
**Q.** Does B1 bind [4]?
**A.** Result: binds

Source: patent publication US20120003655A1, “IDENTIFICATION OF NEUROPROTECTIVE AGENTS USING PRO-INFLAMMATORY HUMAN GLIAL CELLS” (The Salk Institute for Biological Studies, priority 2008, published 2012)
